Measurements published in US20040062729A1, “Photoprotective sunscreen compositions comprising 1,3,5-triazine compounds and triesters of benenetricarboxylic acids” (SOCIETE L'OREAL S.A., priority 2001, published 2004).

Details: 5 g 2,4-bis{[4-2-ethylhexyl-oxy)]-2-hydroxy]phenyl}-6-(4-methoxyphenyl)-1,3,5-triazine in 20 g solvent oil, heated to 83° C., cooled
Protocol: The solubilization time of 2,4-bis{[4-2-ethylhexyl-oxy)]-2-hydroxy]phenyl}-6-(4-methoxyphenyl)-1,3,5-triazine (screening agent) in various solvents is determined by means of the following test:
at room temperature, 20 g of solvent are added to 5 g of screening agent,
the mixture thus obtained is heated to 83° C. by means of a water bath,
after cooling, the possible presence of crystals is then observed under a microscope, between a slide and glass coverslips, in polarized light.

Compound	Presence of crystals, storage in the cold (+4° C.) for 4 days	Presence of crystals, storage at room temperature for 4 days
CCCCCCCCCCCCCCCC(=O)OCC(CC)CCCC (stereo not shown) [2-Ethylhexyl palmitate]	Crystals	Crystals
CCCCCCCCC(CCCCCC)C(=O)O (stereo not shown) [2-Hexyldecanoic acid]	Crystals	Crystals
CCCCCCCCCCC(CO)CCCCCCCC (stereo not shown) [2-Octyldodecanol]	Crystals	Crystals
C[Si]1(C)O[Si](C)(C)O[Si](C)(C)O[Si](C)(C)O[Si](C)(C)O1 [Cyclopentadimethylsiloxane]	Crystals	Crystals
CCCCC(CC)COC(=O)CCCCC(=O)OCC(CC)CCCC (stereo not shown) [Di(2-ethylhexyl) adipate]	Crystals	Crystals
CO[C@H]1CO[C@H]2[C@@H]1OC[C@H]2OC [Dimethyl isosorbide]	Crystals	Crystals
CCCCCCCCOC(=O)CC(O)C(=O)OCCCCCCCC (stereo not shown) [Dioctyl malate]	Crystals	Crystals
CC(CC(=O)OCC(COC(=O)CC(C)CC(C)(C)C)OC(=O)CC(C)CC(C)(C)C)CC(C)(C)C (stereo not shown) [Glyceryl triisononanoate]	Crystals	Crystals
CCCCCCCCC(CO)CCCCCC (stereo not shown) [Isocetyl alcohol, 2-hexyldecanol]	Crystals	Crystals
CC(C)CCCCCCCOC(=O)C(C)(C)C [Isodecyl neopentanoate]	Crystals	Crystals
CCCCCCCCCCCCCC(C)C [Isohexadecane]	Crystals	Crystals/Cloudy
CC(C)CCCCCCOC(=O)CCCCCC(C)C [Isononyl isononanoate]	Crystals	Crystals
CCCCC(CC)C(=O)OCC(C)(C)COC(=O)C(CC)CCCC (stereo not shown) [Neopentyl glycol di-2-ethylhexanoate]	Crystals	Crystals
CCCCCCCC/C=C\CCCCCCCCO [Oleyl alcohol]	Crystals	Crystals
Oxypropylenated butanediol (10 PO)	Crystals	Crystals
Oxypropylenated stearyl alcohol	Crystals	Crystals
Tridecyl trimellitate	Absence of	Absence of
